Values after ≈ are worked out from the molar mass of the structure shown.
What was measured:
aldehyde oxidase enzyme = settings: shown in vitro; cited from earlier work
[1] = cited from earlier work
[2] = phase I study in healthy participants; cited from earlier work
[3] = system: BXSB-Yaa mouse model of lupus; settings: cited from earlier work
[4] = system: ex vivo-stimulated IFN-α secretion (TLR7/8); type: in vivo, human
[5] = system: IFN-α-accelerated NZB/W mouse model of lupus; settings: cited from earlier work
[6] = cited from earlier work; remark: listed apart in the source
[7] = system: ex vivo-stimulated IL-6 secretion (TLR7/8); type: in vivo, human
[8] = Population PK model of oral enpatoran, phase I healthy participant study; type: in vivo, human; settings: interindividual variability, PopPK model
Caco-2 = settings: cited from earlier work
IL-6 secretion (TLR7/8) = settings: mice, mouse models of lupus; cited from earlier work

For N#Cc1ccc(N2C[C@H](N)C[C@H](C(F)(F)F)C2)c2cccnc12 [enpatoran, Enpatoran], the metabolic route (aldehyde oxidase enzyme) is given as “metabolism via the aldehyde oxidase enzyme”, the “F (fraction of the oral dose systemically available)” value [1] is given as greater than 85% and the tolerability [2] is given as “well‐tolerated”. For the same compound, the “doses suppressing disease development” value [3] was no less than 1 mg/kg, the IC90 ([4]; Homo sapiens) was 0.0221 µg/mL (≈ 0.069 µM) and the “inhibition of cytokine release with increasing enpatoran concentrations” value ([4]; IFN-α, complete inhibition) was 100%. For the same compound, the Hill factor ([4]; ex vivo-stimulated IFN-α) was greater than 1.5, the IC60 ([4]; ex vivo-stimulated IFN-α, derived from IC50 and Hill factor) was 0.00843 µg/mL (≈ 0.0263 µM) and the “doses suppressing disease development” value [5] was no less than 1 mg/kg. The logP [6] was 2, the IC90 ([7]; Homo sapiens) was 0.0155 µg/mL (≈ 0.0484 µM) and the “inhibition of cytokine release with increasing enpatoran concentrations” value ([7]; IL-6, complete inhibition) was 100%. The Hill factor ([7]; ex vivo-stimulated IL-6) was greater than 1.5, the IC60 ([7]; ex vivo-stimulated IL-6, derived from IC50 and Hill factor) was 0.00559 µg/mL (≈ 0.0175 µM) and the “IIV CL/F” value [8] was 27.5 %CV. The Caco-2 permeability (Caco-2) was 26 ×10⁻⁶ cm/s and the “lowest (minimally) efficacious dose” value (IL-6 secretion (TLR7/8)) was 1 mg/kg.

Source: PMC9540480 (Clinical Pharmacology and Therapeutics, 2022)
